Laboratory results as given in publication doi:10.1101/2025.02.02.636098v1 (biorxiv, 2025).

Key:
[1] = target: T1, mFFA4 (mouse FFA4) (Mus musculus, UniProt Q7TMA4); test: bystander BRET arrestin-3 recruitment, HEK293T; assay type: cell-based
T1 sequence (Q7TMA4 1-361): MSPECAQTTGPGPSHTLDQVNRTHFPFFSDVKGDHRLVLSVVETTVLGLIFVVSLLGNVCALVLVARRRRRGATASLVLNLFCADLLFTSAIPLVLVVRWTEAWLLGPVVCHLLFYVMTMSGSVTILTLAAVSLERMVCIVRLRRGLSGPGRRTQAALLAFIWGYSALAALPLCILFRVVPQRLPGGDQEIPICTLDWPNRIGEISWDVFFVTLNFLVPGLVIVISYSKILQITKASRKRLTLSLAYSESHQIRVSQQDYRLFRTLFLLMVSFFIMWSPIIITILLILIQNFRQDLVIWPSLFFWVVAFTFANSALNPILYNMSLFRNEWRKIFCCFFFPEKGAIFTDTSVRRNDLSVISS

[2] = target: T1, mFFA4 (mouse FFA4); test: Ca2+ mobilisation, Fura-2, Flp-In T-REx […]; assay type: cell-based

Row | Compound | IC50 [1] | EC50 [2]
1 | Cc1ccc(S(=O)(=O)NC2c3ccccc3Oc3ccccc32)cc1 [AH7614, 4-Methyl-N-9H-xanthen-9-yl-benzenesulfonamide] | 0.2 µM | 
2 | CC/C=C\C/C=C\C/C=C\CCCCCCCC(=O)O [aLA] |  | 10 µM
